Values after ≈ are worked out from the molar mass of the structure shown.
Key:
Solubility in DMSO = type: physicochemical
[1] = system: C. violaceum CV026 (AHL-deficient mutant); assay: Quorum sensing inhibition assay (violacein) with parallel resazurin viability; type: cell-based, Chromobacterium violaceum; details: mutant strain
Experimental: (§1) The QS inhibitory activity of the compounds was assessed as described previously.[31],[47] Briefly, two QS reporter strains, C. violaceum ATCC 31532 and the violacein-negative, mini-Tn5 mutant of C. violaceum CV026 (NCTC 13278), were grown on LBA (for CV026, the agar was supplemented with kanamycin at 100 μg mL^–1) overnight at 27 °C. Colonies were suspended in PDYT (0.5% peptone, 0.3% D-glucose, 0.25% yeast extract, 0.05% L-tryptophan, w/v) to reach an OD600 of 0.02. The CV026 culture was supplemented with C6-HSL (N-hexanoyl-L-homoserine lactone) (10007896, Cayman Chemical, MI) at 0.5 μM to induce the QS-moderated synthesis of violacein. For each strain, 200 μL of bacterial culture was added per well in two identical 96-well plates containing the compounds (2 μL per well for a final DMSO concentration of 1%). In each 96-well plate, untreated cells were used as negative controls and quercetin (Q4951, Sigma-Aldrich) and azithromycin (PZ0007, Sigma-Aldrich) were included as positive controls for QS inhibition and cell viability (bactericidal activity), respectively. The plates were incubated at 27 °C under aerobic conditions (200 rpm) for 22 h.
(§2) The synthesized and nonsoluble violacein was collected from the first 96-well plate by centrifugation (4000 rpm, for 15 min, 20 °C), and the supernatants were removed. Violacein was dissolved in 100 μL per well of 96% (v/v) ethanol and was separated from cells by centrifugation as described above. The supernatant containing violacein was then transferred to a new 96-well plate, and the absorbance was measured at 595 nm using a Multiskan Sky Microplate spectrophotometer. To detect any bactericidal effects, the viability of the cells was measured in the second replica plate by adding 10 μL of 400 μM resazurin in each well and incubating the plate for 30 min in the dark at 27 °C (220 rpm). After centrifugation of the plate to separate the cells from the solution, 100 μL of each well were transferred into a new 96-well plate and the fluorescence was recorded as described above using the Varioskan LUX multimode plate reader.

[2] = system: C. violaceum ATCC 31532 (wild type); assay: as above; type: cell-based, Chromobacterium violaceum; details: wild-type strain
Experimental: as §1, §2

S. aureus ATCC 25923 [3] = assay: S. aureus attachment on LDPE tubes, alone or in coculture with differentiated HL-60 cells; type: cell-based, Staphylococcus aureus; details: 25 μM, 24 h
Experimental: The coculture system was as previously described.[40] Briefly, the bacteria were prepared as described above and the concentration was adjusted to 2 × 10^7 CFU mL^–1 in RPMI 1640. The media of the differentiated HL-60 cells was refreshed with RPMI 1640 24 h before the experiments to remove possible traces of antibiotics. On the day of the experiment, the cells were counted and adjusted to a concentration of 2 × 10^5 cells mL^–1 in RPMI 1640. Each suspension (bacterial and differentiated HL-60 cells, 500 μL of each) was added on 1-cm-long sections of a sterilized fine bore LDPE tubing (Smiths Medical ASD, Minneapolis, MN) in 24-well plates (Nunclon Δ surface, Nunc, Roskilde, Denmark). Fingolimod was also added to the wells at a concentration of 25 μM (0.25% DMSO). Coculture controls with no added compound were included, as well as bacterial controls without differentiated HL-60 cells with and without fingolimod. The plates were incubated for 24 h in the same conditions as for cell maintenance. Then, the LDPE tubes were gently washed with TSB to remove adhering planktonic cells and transferred to Eppendorf tubes containing 1 mL of 0.5% (w/v) Tween 20-TSB solution. Next, the tubes were sonicated in a water bath sonicator (Branson Ultrasonics, Danbury, CT) for 5 min at 35 kHz. The tubes were vortexed for 20 s prior to and after the sonication step. […]

A. baumannii NCTC 13423 = system: A. baumannii NCTC 13423; parameters: method as in PMID 33233348; details: previously reported; cited from earlier work
S. aureus ATCC 25923 [4] = system: S. aureus ATCC 25923; parameters: method as in PMID 33233348; details: previously found; cited from earlier work
HEp-2 = assay: Cytotoxicity, resazurin staining assay; type: cell-based, human; details: 24 h incubation
Summary of the method: (§3)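 A549 and HEp-2 cells (1 × 10^4/well) attached for 24 h before compound addition; HL-60 seeded directly with compounds; 0.25% DMSO final, 24 h exposure. Adherent cells then washed and given 20 μM resazurin for 2 h; HL-60 received resazurin directly for 4 h; fluorescence read-out, 1% Triton X-100 as positive control.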

HL-60 = assay: Cytotoxicity, resazurin staining assay; type: cell-based, human; details: 24 h incubation
Summary of the method: as §3

A549 = assay: Cytotoxicity, resazurin staining assay; type: cell-based, human; details: 24 h incubation
Summary of the method: as §3

In the case of `CCCCCCCCCCc1ccc2nc(CCC(N)(CO)CO)ccc2c1` [Compound 81, 2-Amino-2-[2-(6-decylquinolin-2-yl)ethyl]propane-1,3-diol], the “Solubility in dimethyl sulfoxide (DMSO)” value (Solubility in DMSO) is reported as “not fully soluble”.
In the case of `CCCCCCCCc1ccc2cc(CC(N)(CO)CO)ccc2c1` [Compound 79, 2-Amino-2-[(6-octylnaphthalen-2-yl)methyl]propane-1,3-diol], the “QSI activity compared with fingolimod” value [1] is reported as “significantly lower QSI activity than fingolimod” and the “QSI activity compared with fingolimod” value [2] is reported as “significantly lower QSI activity than fingolimod”.
For `CCCCCCCCCCc1ccc(CCC(N)(CO)CO)nc1` [Compound 62, 2-Amino-2-[2-(5-decylpyridin-2-yl)ethyl]propane-1,3-diol], the “QSI activity compared with fingolimod” value [2] was “significantly worse than fingolimod”.
For `CCCCCCCCc1ccc(CCC(N)(CO)CO)cc1` [fingolimod, Fingolimod], the “Bacterial attachment on LDPE tubes” value (S. aureus ATCC 25923 [3]; in combination with HL-60 cells, vs coculture control (p = 0.042)) is listed as “significant reduction”, the “Numbers of attached viable S. aureus on LDPE tubes” value (S. aureus ATCC 25923 [3]; in the absence of HL-60 cells, vs monoculture control (p = 0.013)) is listed as “significantly reduced” and the “MIC A. baumannii” value (A. baumannii NCTC 13423) is listed as 25 µM (≈ 7.69 µg/mL). For the same molecule, the “MIC in pre-exposure, S. aureus” value (S. aureus ATCC 25923 [4]) was 15 µM (≈ 4.61 µg/mL) and the “Solubility in dimethyl sulfoxide (DMSO)” value (Solubility in DMSO) was “not fully soluble”.
For `CCCCCCCCc1ccc2ccc(CC(N)(CO)CO)nc2c1` [Compound 82, 2-Amino-2-[(7-octylquinolin-2-yl)methyl]propane-1,3-diol], the “QSI activity compared with fingolimod” value [1] was “significantly better QSI activity”.
With “2-Amino-2-(4-decylbenzyl)propane-1,3-diol [Compound 45]” the CC50 (HEp-2) was over 40 µM, the CC50 (HL-60) was 3.2 ± 1 µM and the CC50 (A549) was 27.4 ± 15.1 µM.

Source: PMC8296573, “Synthesis and Biological Evaluation of Fingolimod Derivatives as Antibacterial Agents” (ACS Omega, 2021)
